Literature values, collected in patent publication US5296468A, “GnRH analogs” (The Salk Institute for Biological Studies, priority 1993, dated 1994).

Columns and labels:
the receptor = target: T1, the receptor (Homo sapiens, UniProt P30968); settings: background, U.S. Pat. No. 4,072,668
T1 sequence (P30968 1-328): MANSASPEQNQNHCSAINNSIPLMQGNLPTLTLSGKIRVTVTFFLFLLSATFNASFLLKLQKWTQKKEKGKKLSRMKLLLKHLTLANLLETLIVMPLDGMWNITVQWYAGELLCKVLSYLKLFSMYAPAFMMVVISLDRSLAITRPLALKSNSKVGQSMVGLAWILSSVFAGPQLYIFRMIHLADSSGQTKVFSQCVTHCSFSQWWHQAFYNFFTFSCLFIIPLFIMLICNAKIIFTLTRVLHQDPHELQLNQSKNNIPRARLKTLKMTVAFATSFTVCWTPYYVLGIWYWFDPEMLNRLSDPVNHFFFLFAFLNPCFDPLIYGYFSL

[1] = background, U.S. Pat. No. 4,072,668

Substance: pGlu-His-Trp-Ser-Tyr-D-Ala-Leu-Arg-Pro-Gly-NH2 [[D-Ala^6]-GnRH]
- binding strength to the receptor compared with the native hormone (the receptor): greater binding strength to the receptor
- biological potency compared with the native hormone [1]: greater biological potency than the native hormone
